Assay results as given in patent US6878742B2, “Heterocyclic sulfonamide inhibitors of beta amyloid production” (Wyeth, priority 2000, dated 2005).
“And” between values parts separate entries of the source, which are not always exact repeats. Equal entries are not always repeated.

tested on: amyloid precursor protein (APP) proteolysis; assay: Repressor Release Assay (RRA); assay type: cell-based; settings: Conc 0.3 μg/mL; luciferase activity over diluent control
Procedure, shortened: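 This repressor release assay monitors APP proteolysis in mammalian cells. Transfected CHO-K1 cells (pRSVO-luc plus APP-lacI) were seeded at […], treated with compound diluted in 25 mM Hepes, then incubated 36-48 hours. After replacing media with PBS and adding LucLite lysis/substrate buffer, luminescence was measured, and fold increase over diluent control was calculated.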

Compound | APPI Fold Increase
CC[C@@H](C)[C@@H](CO)NS(=O)(=O)c1ccc(Cl)s1 [Example 16] | 1.7 fold

same assay, conditions: Conc 1 μg/mL; luciferase activity over diluent control

Compound | APPI Fold Increase
CC[C@@H](C)[C@@H](CO)NS(=O)(=O)c1ccc(Cl)s1 [Example 16] | 1.9 fold and 2.56 fold

same assay, conditions: Conc 3 μg/mL; luciferase activity over diluent control

Compound | APPI Fold Increase
CC[C@@H](C)[C@@H](CO)NS(=O)(=O)c1ccc(Cl)s1 [Example 16] | 3.1 fold and 4.47 fold

same assay, conditions: Conc 10 μg/mL; luciferase activity over diluent control

Compound | APPI Fold Increase
O=S(=O)(NC1(CO)CCCC1)c1ccc(Cl)s1 [Example 94] | 2.4 fold
CC[C@@H](C)[C@@H](CO)NS(=O)(=O)c1ccc(Cl)s1 [Example 16] | 4.19 fold and 3.2 fold
CC=C(C)C(O)C(NS(=O)(=O)c1ccc(Cl)s1)C(C)CC (mixture of isomers) [Example 135] | 1.93 fold and 1.75 fold

same assay, conditions: Conc 10 μg/mL; luciferase activity over diluent control; read-out: APPI Fold Increase

Compound | fold induction at 10 µg/mL
CCCCCC(O)[C@@H](NS(=O)(=O)c1cccs1)[C@@H](C)CC (stereo partly drawn) [Example 142, N-{(S)-2-hydroxy-1-[(S)-1-methylpropyl]heptyl}thiophene-2-sulfonamide] | 3.59
CC[C@H](C)[C@H](NS(=O)(=O)c1ccc(Cl)s1)C(O)c1ccc(Cl)cc1 (stereo partly drawn) [Example 131, 5-chloro-N-{(S,S)-1-[(4-chlorophenyl)(hydroxy)methyl]-2-methylbutyl}thiophene-2-sulfonamide] | 3.64
CC[C@H](C)[C@H](NS(=O)(=O)c1ccc(Cl)s1)C(O)c1ccc(SC)cc1 (stereo partly drawn) [Example 138, 5-chloro-N-((S,S)-1-{hydroxy[4-(methylthio)phenyl]methyl}-2-methylbutyl)thiophene-2-sulfonamide] | 3.54
C=CCCC(O)[C@@H](NS(=O)(=O)c1cccs1)[C@@H](C)CC (stereo partly drawn) [Example 151, N-{(S)-2-hydroxy-1-[(S)-1-methylpropyl]hex-5-enyl}thiophene-2-sulfonamide] | 1.94
C=CCCC(O)(CCC=C)[C@@H](NS(=O)(=O)c1ccc(Cl)s1)[C@@H](C)CC [Example 171, N-{(S)-2-but-3-enyl-2-hydroxy-1-[(S)-1-methylpropyl]hex-5-enyl}-5-chlorothiophene-2-sulfonamide] | 5.32
CC[C@H](C)[C@H](NS(=O)(=O)c1ccc(Cl)s1)C(O)(c1ccc(Cl)cc1)c1ccc(Cl)cc1 [Example 167, N-{(S,S)-1-[bis(4-chlorophenyl)(hydroxy)methyl]-2-methylbutyl}-5-chlorothiophene-2-sulfonamide] | 3.42
CC[C@H](C)[C@H](NS(=O)(=O)c1cccs1)C(O)c1ccc(OC)cc1 (stereo partly drawn) [Example 149, N-{(S,S)-1-[hydroxy(4-methoxyphenyl)methyl]-2-methylbutyl}thiophene-2-sulfonamide] | 1.62

same assay, conditions: Conc 20 μg/mL; luciferase activity over diluent control

Compound | APPI Fold Increase
O=S(=O)(NC1(CO)Cc2ccccc2C1)c1ccc(Br)s1 [Example 183] | 3.7 fold
CCCNC1CCC(C(CO)NS(=O)(=O)c2ccc(Cl)s2)CC1 (mixture of isomers) [Example 214] | 2.1 fold
CC[C@H](C)[C@@H](CO)NS(=O)(=O)c1cccs1 [Example 7, N-[(1S,2S)-1-(hydroxymethyl)-2-methylbutyl]thiophene-2-sulfonamide] | 3.2 fold
5-chloro-N-{(S,S)-1-[(S)-1-hydroxyethyl]-2-methylbutyl}thiophene-2-sulfonamide [Example 184] | 3.7 fold and 2.7 fold

same assay, conditions: Conc 20 μg/mL; luciferase activity over diluent control; read-out: APPI Fold Increase

Compound | fold induction at 20 µg/mL
CCC(CC)[C@H](NS(=O)(=O)c1ccc(Cl)s1)C(C)O (stereo partly drawn) [Example 222, 5-Chloro-N-[(S)-2-ethyl-1-(1-hydroxyethyl)butyl]thiophene-2-sulfonamide] | 7.2
O=S(=O)(NC(CO)C1CCSCC1)c1ccc(Cl)s1 (stereo not drawn) [Example 224, 5-Chloro-N-(2-hydroxy-1-tetrahydro-H-thiopyran-4-ylethyl)thiophene-2-sulfonamide] | 7.2
CCCCCC[C@@H](CC)[C@@H](CO)NS(=O)(=O)c1ccc(Br)s1 [Example 78A, 5-bromo-N-[(1S,2R)-2-ethyl-1-(hydroxymethyl)octyl]thiophene-2-sulfonamide] | 5.8
CCC[C@H](c1ccccc1)[C@@H](CO)NS(=O)(=O)c1ccc(Cl)s1 [Example 38, 5-chloro-N-[(1S,2R)-1-(hydroxymethyl)-2-phenylpentyl]thiophene-2-sulfonamide] | 4.1
O=S(=O)(NC1(CO)CC2CCC1C2)c1ccc(Cl)s1 (stereo not drawn) [Example 178, 5-chloro-N-[2-(hydroxymethyl)bicyclo[2.2.1]hept-2-yl]thiophene-2-sulfonamide] | 2.3
O=S(=O)(N[C@H](CO)C1CCC(NCc2ccccc2)CC1)c1ccc(Cl)s1 (stereo partly drawn) [Example 211, 5-Chloro-N-[(S)-2-hydroxy-1-(4-benzylaminocyclohexyl)ethyl]thiophene-2-sulfonamide] | 1.9
CCC[C@H](C)[C@@H](CO)NS(=O)(=O)c1ccc(Cl)s1 [Example 33, 5-chloro-N-[(1S,2S)-1-(hydroxymethyl)-2-methylpentyl]thiophene-2-sulfonamide] | 6.5
CC[C@@H](c1ccco1)[C@@H](CO)NS(=O)(=O)c1ccc(Br)s1 [Example 71, 5-bromo-N-[(1S,2R)-2-(2-furyl)-1-(hydroxymethyl)butyl]thiophene-2-sulfonamide] | 5.2
CCCCCC[C@@H](CCCCC)[C@@H](CO)NS(=O)(=O)c1ccc(Br)s1 [Example 65, 5-bromo-N-[(1S,2R)-1-(hydroxymethyl)-2-pentyloctyl]thiophene-2-sulfonamide] | 1.9
CCCC(CO)NS(=O)(=O)c1ccc(Br)s1 (racemic) [Example 112, 5-bromo-N-[1-(hydroxymethyl)butyl]thiophene-2-sulfonamide] | 1.6
O=S(=O)(N[C@H](CO)Cc1ccccc1)c1ccc(Cl)s1 [Example 96, N-[(S)-1-benzyl-2-hydroxyethyl]-5-chlorothiophene-2-sulfonamide] | 1.5
C[C@@H](c1ccco1)[C@@H](CO)NS(=O)(=O)c1ccc(Br)s1 [Example 70, 5-bromo-N-[(1S,2R)-2-(2-furyl)-1-(hydroxymethyl)propyl]thiophene-2-sulfonamide] | 4.6
CC(C)C[C@@H](c1ccc(-c2ccccc2)cc1)[C@@H](CO)NS(=O)(=O)c1ccc(Cl)s1 [Example 55, N-[(1S,2S)-2-[1,1'-biphenyl]-4-yl-1-(hydroxymethyl)-4-methylpentyl]-5-chlorothiophene-2-sulfonamide] | 1.9
CC[C@H](CC(C)C)[C@@H](CO)NS(=O)(=O)c1ccc(Cl)s1 [Example 31, 5-chloro-N-[(1S,2R)-2-ethyl-1-(hydroxymethyl)-4-methylpentyl]thiophene-2-sulfonamide] | 4.4
CC(NCc1ccccc1)[C@@H](CO)NS(=O)(=O)c1ccc(Cl)s1 (stereo partly drawn) [Example 84, N-[(1S)-2-(benzylamino)-1-(hydroxymethyl)propyl]-5-chloro-2-thiophenesulfonamide] | 3.8
C[C@@H](O)[C@@H](CO)NS(=O)(=O)c1ccc(Br)s1 [Example 117, 5-bromo-N-[(R,R)-2-hydroxy-1-(hydroxymethyl)propyl]thiophene-2-sulfonamide] | 2.6
O=S(=O)(N[C@H](CO)CSCc1ccccc1)c1ccc(Cl)s1 [Example 101, N-[R-2-(benzylthio)-1-(hydroxymethyl)ethyl]-5-chlorothiophene-2-sulfonamide] | 2.7
O=S(=O)(NC1(CO)CC2CCC1C2)c1ccc(Br)s1 (stereo not drawn) [Example 182, 5-bromo-N-[2-(hydroxymethyl)bicyclo[2.2.1]hept-2-yl]thiophene-2-sulfonamide] | 4.2
CC(C)(CO)NS(=O)(=O)c1ccc(Cl)s1 [Example 92, 5-chloro-N-(2-hydroxy-1,1-dimethylethyl)thiophene-2-sulfonamide] | 1.5

same assay, conditions: read-out: APPI Fold Increase

Compound | fold induction at 20 µg/mL
O=S(=O)(NC(CO)C1CC=CCC1)c1ccc(Cl)s1 (stereo not drawn) [Example 23, 5-chloro-N-(1-cyclohex-3-en-1-yl-2-hydroxyethyl)thiophene-2-sulfonamide] | 6.4

tested on: not given; assay: not given; settings: not given

Compound | melting point
CCC(CC)[C@H](NS(=O)(=O)c1ccc(Cl)s1)C(C)O (stereo partly drawn) [Example 222, 5-Chloro-N-[(S)-2-ethyl-1-(1-hydroxyethyl)butyl]thiophene-2-sulfonamide] | 95 to 98 °C
O=S(=O)(NC(CO)C1CCSCC1)c1ccc(Cl)s1 (stereo not drawn) [Example 224, 5-Chloro-N-(2-hydroxy-1-tetrahydro-H-thiopyran-4-ylethyl)thiophene-2-sulfonamide] | 108 to 110 °C
